doi:10.1101/2020.07.01.182642v1 (biorxiv, 2020)

What was measured:
[1] = target: T1, CLK3 (R134-T484) (Homo sapiens, UniProt P49761, A319V); assay: Omnia kinase assay; assay type: biochemical
[2] = target: CLK1 (full-length) (Homo sapiens, UniProt P49759, V324A); assay: cell-based
[3] = target: T2, CLK1 (H148-I484) (Homo sapiens, UniProt P49759); conditions: binder
[4] = target: T3, CLK3 (R134-T484) (Homo sapiens, UniProt P49761); conditions: binder
[5] = target: T1, CLK3 (R134-T484); conditions: binder
[6] = target: CLK1 (Homo sapiens, UniProt P49759); conditions: binder
CLK1, sequence (P49759 whole entry): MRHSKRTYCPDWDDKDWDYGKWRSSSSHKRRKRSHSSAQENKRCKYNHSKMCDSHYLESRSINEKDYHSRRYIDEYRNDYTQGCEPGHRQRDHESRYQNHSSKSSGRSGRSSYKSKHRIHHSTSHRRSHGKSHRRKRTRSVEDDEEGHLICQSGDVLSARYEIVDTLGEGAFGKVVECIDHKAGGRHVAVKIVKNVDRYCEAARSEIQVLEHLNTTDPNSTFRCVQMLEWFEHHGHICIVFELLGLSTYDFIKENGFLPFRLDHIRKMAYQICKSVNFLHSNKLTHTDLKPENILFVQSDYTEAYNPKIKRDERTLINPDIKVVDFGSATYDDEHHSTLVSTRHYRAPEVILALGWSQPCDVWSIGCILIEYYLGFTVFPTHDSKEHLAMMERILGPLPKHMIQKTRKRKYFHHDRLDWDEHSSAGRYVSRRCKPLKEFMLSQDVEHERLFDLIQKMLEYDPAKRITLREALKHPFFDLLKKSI

[7] = target: CLK3 (Homo sapiens, UniProt P49761); conditions: binder
CLK3, sequence (P49761 whole entry): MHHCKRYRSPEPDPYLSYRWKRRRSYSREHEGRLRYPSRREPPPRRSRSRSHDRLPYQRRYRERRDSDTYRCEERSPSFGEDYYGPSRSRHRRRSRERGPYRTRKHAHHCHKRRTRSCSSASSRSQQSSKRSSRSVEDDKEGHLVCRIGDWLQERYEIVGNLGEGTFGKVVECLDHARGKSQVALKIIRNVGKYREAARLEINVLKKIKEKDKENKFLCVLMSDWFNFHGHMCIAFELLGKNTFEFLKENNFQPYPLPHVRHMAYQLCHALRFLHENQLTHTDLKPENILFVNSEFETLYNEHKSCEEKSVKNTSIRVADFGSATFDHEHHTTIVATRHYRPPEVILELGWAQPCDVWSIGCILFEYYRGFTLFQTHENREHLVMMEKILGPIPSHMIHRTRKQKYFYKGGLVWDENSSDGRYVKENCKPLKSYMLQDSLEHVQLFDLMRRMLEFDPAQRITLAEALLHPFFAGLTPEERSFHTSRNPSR

[8] = target: CLK1 (H148-I484) (Homo sapiens, UniProt P49759, V324A); conditions: binder
CLK1 (H148-I484) (Homo sapiens, UniProt P49759, V324A), sequence (P49759 148-484 V324A): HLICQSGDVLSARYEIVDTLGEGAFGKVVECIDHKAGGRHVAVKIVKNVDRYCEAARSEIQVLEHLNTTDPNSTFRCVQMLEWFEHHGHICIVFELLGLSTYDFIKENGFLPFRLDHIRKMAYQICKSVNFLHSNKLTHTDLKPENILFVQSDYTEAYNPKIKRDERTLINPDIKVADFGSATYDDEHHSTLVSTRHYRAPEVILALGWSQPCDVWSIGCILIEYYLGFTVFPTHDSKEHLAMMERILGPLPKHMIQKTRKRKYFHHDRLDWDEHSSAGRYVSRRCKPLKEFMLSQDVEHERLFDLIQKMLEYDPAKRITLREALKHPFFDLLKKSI

[9] = target: T3, CLK3 (R134-T484); conditions: binder; remark: listed apart in the source
[10] = target: T2, CLK1 (H148-I484); conditions: binder; remark: listed apart in the source
[11] = target: CLK1 (full-length) (Homo sapiens, UniProt P49759); assay: cell-based
CLK1 (full-length) (Homo sapiens, UniProt P49759), sequence (P49759 whole entry): as the sequence (P49759 whole entry) above

T2 sequence (P49759 148-484): as the sequence (P49759 148-484 V324A) above, with A177V counted along it
CLK1 (full-length) (Homo sapiens, UniProt P49759, V324A), sequence (P49759 whole entry V324A): as the sequence (P49759 whole entry) above, with V324A counted along it
T1 sequence (P49761 134-484 A319V): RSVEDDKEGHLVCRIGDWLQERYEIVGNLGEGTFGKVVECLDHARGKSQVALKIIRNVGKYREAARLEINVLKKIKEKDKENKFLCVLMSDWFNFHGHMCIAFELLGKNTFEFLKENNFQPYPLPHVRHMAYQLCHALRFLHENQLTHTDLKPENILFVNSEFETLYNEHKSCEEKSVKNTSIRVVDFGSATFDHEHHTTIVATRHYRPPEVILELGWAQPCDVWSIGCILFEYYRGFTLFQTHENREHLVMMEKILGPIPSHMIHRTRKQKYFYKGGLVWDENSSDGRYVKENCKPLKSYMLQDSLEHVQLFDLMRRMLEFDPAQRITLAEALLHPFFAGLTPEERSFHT
T3 sequence (P49761 134-484): as the sequence (P49761 134-484 A319V) above, with V186A counted along it

SMILES	Ki [2] [nM]	ΔTm wild type CLK1 [3] [°C]	ΔTm wild type CLK3 [4] [°C]	ΔTm A319V CLK3 [5] [°C]	ΔTm V324A CLK1 [8] [°C]	further results
Cn1c2c(c3ccc(Cl)c(Cl)c31)C(C#N)C1(CCNCC1)NC2=O (racemic) [compound 3, KH-CARB13]	2810 ± 670	7.4	1.2	5.8	–	Ki [1]: 850 ± 300 nM; ΔTm (°C) 3 [6]: 7.0 degC; ΔTm (°C) 3 [7]: 2.2 degC
Cn1cc(-c2ccc3occ(-c4cccc(-c5ccncc5)c4)c3n2)cn1 [compound 5, MU1210]	–	9.3	1.5	8.27	5.94	–
CN[C@@H]1C[C@H]2O[C@@](C)([C@@H]1OC)n1c3ccccc3c3c4c(c5c6ccccc6n2c5c31)C(=O)NC4 [compound 6, staurosporine]	–	–	–	–	–	wild type CLK3 [9]: 4.7 °C
CCOC(=O)c1c(/C(C#N)=C\N)c2ccc(Cl)c(Cl)c2n1C [compound 7, KH-CB19]	–	–	–	–	–	wild type CLK1 [10]: 15.0 °C; wild type CLK3 [9]: 8.6 °C
CN1CCN(C(=O)C(C)(C)c2ccc(C(=O)Nc3cn4cc(-c5ccncc5)ccc4n3)cc2)CC1 [compound 10, T3-CLK]	2.3 ± 0.1	–	–	–	–	Ki [11]: 1 ± 0.1 nM
CN1CCN(C(=O)C(C)(C)c2ccc(C(=O)Nc3cn4cc(-c5ccncc5)ccc4n3)cc2)CC1 [compound 10]	–	18.7	13.7	17.3	13.7	–
O=C1NCc2ccc3c(-c4cccc(Cl)c4)c[nH]c3c21 [compound 11]	–	9.4	1.7	4.7	5.1	–
COC(=N)c1nc2ccc3ncnc(Nc4ccc(OC)cc4F)c3c2s1 [compound 13, ETH1610]	–	10.3	3.4	9.2	3.8	–
Cn1cc(-c2ccc3occ(-c4cccc(Oc5ccccc5)c4)c3n2)cn1 [compound 14, VN412]	–	12.3	4.8	10.1	7.8	–
CN1CCC2(CC1)NC(=O)c1c(c3ccc(Cl)c(Cl)c3n1C)C2C#N (stereo not shown) [compound 16, KH-CARB10]	–	6.1	1.1	5.0	1.8	–
Nc1ncnc2c1c(I)cn2C1OC(CO)C(O)C1O (stereo not shown) [compound 18, iodotubercidin]	–	13.1	7.9	14.1	9.7	–

Second part, led by results:

Ki [2] [nM]	ΔTm wild type CLK1 [3] [°C]	ΔTm wild type CLK3 [4] [°C]	ΔTm A319V CLK3 [5] [°C]	ΔTm V324A CLK1 [8] [°C]	SMILES	further results
3930 ± 1100	–	–	–	–	CCOc1ccc2c(-c3ccnc(Nc4cc(OC)cc(C(F)(F)F)c4)n3)cnn2n1 [compound 8, GW807982X]	Ki [11]: 36 ± 20 nM; wild type CLK1 [10]: 9 °C; wild type CLK3 [9]: 2.0 °C
2640 ± 1800	–	–	–	–	CC(=O)c1cccc(-c2cnc3ccc(NC(CO)C(C)C)nn23)c1 (stereo not shown) [compound 9, K00518]	Ki [11]: 943 ± 640 nM
–	6.8	1.8	8.6	3.9	CC(=O)c1cccc(-c2cnc3ccc(NC(CO)C(C)C)nn23)c1 (stereo not shown) [compound 9]	–
878 ± 46	–	–	–	–	O=C1NCc2ccc3c(-c4cccc(Cl)c4)c[nH]c3c21 [compound 11, KuWal151]	Ki [11]: 228 ± 80 nM
5450 ± 790	–	–	–	–	O=c1c2c(ccc3nc(-c4cccnc4)sc32)ncn1C1CC1 [compound 12, FC162]	Ki [11]: 1860 ± 1200 nM
–	9.5	3.6	5.5	3.0	O=c1c2c(ccc3nc(-c4cccnc4)sc32)ncn1C1CC1 [compound 12]	–
